Laboratory results from PubChem BioAssay AID2060507 (Molecular Pharmacology Branch, DTP, NCI, 2025).

Test system: 519858-162-T-J1-PDC complex spheroid viability
Experiment: Anticancer human tumor 519858-162-T-J1-PDC patient-derived colon adenocarcinoma cell line growth inhibition [GQUAD]
Settings: for IC50: curve of first compound; for viability, T/C: stronger effect = lower value; active means viability on the fitted dose curve at most 10% of control; inactive means the rest
Summary of the method: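 Multi-cell-type spheroids of tumor cells with HUVEC and mesenchymal stem cells, treated with drug combinations. Concentrations descend in half-log steps from near clinical Cmax, or from 10 microM where Cmax is unknown; viability read-out.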
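Further: spheroids exposed to compounds for 7 days.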
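Wherever viability, T/C is given: 100% = DMSO vehicle control viability.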

O=C(c1cc(Cc2n[nH]c(=O)c3ccccc23)ccc1F)N1CCN(C(=O)C2CC2)CC1 + Cc1cnc(CNC(=O)c2c(=O)c3ccc(N4CCCN(C)CC4)nc3n3c2sc2ccccc23)cn1
< 0.0316 µM: IC50 (second compound 3.16 µM) | IC50 (second compound 10 µM)
inactive: viability, T/C (second compound 0.0316 µM, first compound 0.0316 µM) 92.2% | viability, T/C (second compound 0.0316 µM, first compound 0.1 µM) 89.5% | viability, T/C (second compound 0.0316 µM, first compound 0.316 µM) 89.7% | viability, T/C (second compound 0.0316 µM, first compound 1 µM) 81.5% | viability, T/C (second compound 0.0316 µM, first compound 3.16 µM) 64.2% | viability, T/C (second compound 0.0316 µM, first compound 10 µM) 74.7% | viability, T/C (second compound 0.1 µM, first compound 0.0316 µM) 52.6% | viability, T/C (second compound 0.1 µM, first compound 0.1 µM) 65.7% | viability, T/C (second compound 0.1 µM, first compound 0.316 µM) 65.3% | viability, T/C (second compound 0.1 µM, first compound 1 µM) 58.8% | viability, T/C (second compound 0.1 µM, first compound 3.16 µM) 48.3% | viability, T/C (second compound 0.1 µM, first compound 10 µM) 74.5% | viability, T/C (second compound 0.316 µM, first compound 0.0316 µM) 82.6% | viability, T/C (second compound 0.316 µM, first compound 0.1 µM) 72.4% | viability, T/C (second compound 0.316 µM, first compound 0.316 µM) 50.3% | viability, T/C (second compound 0.316 µM, first compound 1 µM) 47.6% | viability, T/C (second compound 0.316 µM, first compound 3.16 µM) 52.9% | viability, T/C (second compound 0.316 µM, first compound 10 µM) 60.6% | viability, T/C (second compound 1 µM, first compound 0.0316 µM) 68.6% | viability, T/C (second compound 1 µM, first compound 0.1 µM) 67.5% | viability, T/C (second compound 1 µM, first compound 0.316 µM) 48.3% | viability, T/C (second compound 1 µM, first compound 1 µM) 64.4% | viability, T/C (second compound 1 µM, first compound 3.16 µM) 45.5% | viability, T/C (second compound 1 µM, first compound 10 µM) 54.6% | viability, T/C (second compound 3.16 µM, first compound 0.0316 µM) 60% | viability, T/C (second compound 3.16 µM, first compound 0.1 µM) 31.8% | viability, T/C (second compound 3.16 µM, first compound 0.316 µM) 39.6% | viability, T/C (second compound 3.16 µM, first compound 1 µM) 39.2% | viability, T/C (second compound 3.16 µM, first compound 3.16 µM) 47.4% | viability, T/C (second compound 3.16 µM, first compound 10 µM) 41.2% | viability, T/C (second compound 10 µM, first compound 0.0316 µM) 47.9% | viability, T/C (second compound 10 µM, first compound 0.1 µM) 46.5% | viability, T/C (second compound 10 µM, first compound 0.316 µM) 49.7% | viability, T/C (second compound 10 µM, first compound 1 µM) 44.6% | viability, T/C (second compound 10 µM, first compound 3.16 µM) 49% | viability, T/C (second compound 10 µM, first compound 10 µM) 57.2%
> 10 µM: IC50 (second compound 0.0316 µM) | IC50 (second compound 0.1 µM) | IC50 (second compound 0.316 µM) | IC50 (second compound 1 µM)
